# Molecular target: T1, P2X7 receptor (Homo sapiens, UniProt Q99572)
# T1 construct: host or cells: SH-SY5Y
# T1 sequence (Q99572 1-595): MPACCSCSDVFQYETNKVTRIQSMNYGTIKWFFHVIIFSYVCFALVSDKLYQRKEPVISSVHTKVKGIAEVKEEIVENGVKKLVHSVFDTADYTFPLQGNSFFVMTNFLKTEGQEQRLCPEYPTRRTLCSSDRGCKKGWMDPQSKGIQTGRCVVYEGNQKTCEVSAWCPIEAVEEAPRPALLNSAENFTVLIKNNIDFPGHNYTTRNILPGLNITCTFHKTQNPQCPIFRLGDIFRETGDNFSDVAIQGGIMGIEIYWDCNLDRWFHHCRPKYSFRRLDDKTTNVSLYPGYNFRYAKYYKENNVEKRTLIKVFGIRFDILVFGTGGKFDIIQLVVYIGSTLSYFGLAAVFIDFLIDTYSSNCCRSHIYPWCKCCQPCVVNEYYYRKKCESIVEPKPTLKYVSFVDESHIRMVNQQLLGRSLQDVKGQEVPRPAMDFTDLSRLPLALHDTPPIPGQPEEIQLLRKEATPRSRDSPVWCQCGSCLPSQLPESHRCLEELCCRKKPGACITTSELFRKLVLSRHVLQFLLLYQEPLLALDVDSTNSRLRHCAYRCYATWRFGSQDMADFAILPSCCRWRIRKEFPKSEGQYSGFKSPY
# Test: P2X7 calcium mobilization assay, high throughput, antagonist activity (Example 4A)
# Assay type: cell-based
# Conditions: not given
# Procedure, shortened: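 Cells plated at 100,000/well the day before were dye-loaded for 1 h, then incubated 1 h at room temperature with test compound before agonist-triggered calcium mobilization was read on FLIPR Tetra. Maximum RFU was corrected by subtracting the no-agonist control and related to the agonist-control response.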
row,Structure (SMILES),IC50
1,"O=C(NCC12CC3CC(CC(C3)C1)C2)c1cccc2nc(CNCCO)cn12 [Compound 65, N-(adamantan-1-ylmethyl)-2-{[(2-hydroxy-ethyl)amino]methyl}imi-dazo[1,2-a]pyridine-5-carboxamide]",< 2000 nM
2,"O=C(NCC12CC3CC(CC(C3)C1)C2)c1cccc2nc(CNCCN3CCCC3)cn12 [Compound 126, N-(adamantan-1-ylmethyl)-2-{[(2-pyrrolidin-1-ylethyl)amino]methyl}imi-dazo[1,2-a]pyridine-5-carboxamide]",< 2000 nM

# Same assay, conditions: 50% decrease in the fluorescence response of cells exposed to 80 μM 2′(3′)-O-(4-benzoyl-benzoyl)adenosine 5′-triphosphate; Example 4A; read-out: IC50
row,IC50,Structure (SMILES)
1,< 2000 nM,"CCN(Cc1cn2c(C(=O)NCC34CC5CC(CC(C5)C3)C4)cccc2n1)C(=O)C(=O)O [Compound 546, [({5-[(adamantan-1-ylmethyl)carbamoyl]imidazo[1,2-a]pyridin-2-yl}methyl)(ethyl)amino] (oxo)acetic acid]"
2,< 2000 nM,"C[C@@H]1CN(C(=O)c2cn3c(C(=O)NCC45CC6CC(CC(C6)C4)C5)cccc3n2)CCN1 [Compound 604, N-(adamantan-1-ylmethyl)-2-{[(3R)-3-methylpiperazin-1-yl]carbonyl}imidazo[1,2-a]pyridine-5-carboxamide]"
3,< 2000 nM,"CN(CCC(C)(C)O)C(=O)c1cn2c(NC(=O)CC34CC5CC(CC(C5)C3)C4)cccc2n1 [Compound 431, 5-[(adamantan-1-ylacetyl)amino]-N-(3-hydroxy-3-methylbutyl)-N-methylimidazo[1,2-a]pyridine-2-carboxamide]"
4,< 2000 nM,CC1(C)[C@H]2CC[C@@H](CNC(=O)c3cccc4nc(C(=O)N5CCC(C(F)(F)F)CC5)cn34)[C@@H]1C2 [Compound 488]
5,< 2000 nM,"CC(C)CNC(=O)c1cn2c(C(=O)NC[C@@H]3CC[C@H]4C[C@@H]3C4(C)C)cccc2n1 [Compound 496, 5-N-{[(1S,2R,5S)-6,6-dimethylbicyclo[3.1.1]hept-2-yl]methyl}-2-N-isobutylimidazo[1,2-a]pyridine-2,5-dicarboxamide]"

row,Structure (SMILES),IC50
1,"CN(C)CCN(C(=O)Cc1cn2c(C(=O)NC[C@@H]3CC[C@@H]4C[C@H]3C4(C)C)cccc2n1)C1CCNCC1(C)C (stereo partly drawn) [Compound 574, 2-(2-{[2-(dimethylamino)ethyl] (3,3-dimethylpiperidin-4-yl)amino}-2-oxoethyl)-N-{[(1R,2R,5R)-6,6-dimethylbicyclo [3.1.1]hept-2-yl]methyl}imidazo[1,2-a]pyridine-5-carboxamide]",< 2000 nM

# Same assay, conditions: 50% decrease in the fluorescence response of cells exposed to 80 μM of 2′(3′)-O-(4-benzoyl-benzoyl)adenosine 5′-triphosphate; Example 4A; read-out: IC50
row,IC50,Structure (SMILES)
1,< 2000 nM,"NCC1CCN(C(=O)c2cn3c(C(=O)NCC45CC6CC(CC(C6)C4)C5)cccc3n2)CC1 [Compound 630, N-(adamantan-1-ylmethyl)-2-{[4-(aminomethyl)piperidin-1-yl]carbonyl}imidazo[1,2-a]pyridine-5-carboxamide]"
2,< 2000 nM,"CN1CCCCC1CNC(=O)c1cn2c(C(=O)NCC34CC5CC(CC(C5)C3)C4)cccc2n1 (stereo not shown) [Compound 666, 5-N-(adamantan-1-ylmethyl)-2-N-[(1-methylpiperidin-2-yl)methyl]imidazo[1,2-a]pyridine-2,5-dicarboxamide]"
3,< 2000 nM,"CC(C)(Cc1cn2c(C(=O)NCC34CC5CC(CC(C5)C3)C4)cccc2n1)C(=O)O [Compound 731, 3-{5-[(adamantan-1-ylmethyl)carbamoyl]imidazo[1,2-a]pyridin-2-yl}-2,2-dimethylpropanoic acid]"
4,< 2000 nM,"NC[C@@H]1CCCN1C(=O)c1cn2c(C(=O)NCC34CC5CC(CC(C5)C3)C4)cccc2n1 [Compound 628, N-(adamantan-1-ylmethyl)-2-{[(2S)-2-(aminomethyl)pyrrolidin-1-yl]carbonyl}imidazo[1,2-a]pyridine-5-carboxamide]"
5,< 2000 nM,"CCN(C)CCN(CC)C(=O)c1cn2c(C(=O)NCC34CC5CC(CC(C5)C3)C4)cccc2n1 [Compound 673, 5-N-(adamantan-1-ylmethyl)-2-N-ethyl-2-N-{2-[ethyl(methyl)amino]ethyl}imidazo[1,2-a]pyridine-2,5-dicarboxamide]"
6,< 2000 nM,"CN(C)C(=O)CC(C(=O)O)c1cn2c(C(=O)NCC34CC5CC(CC(C5)C3)C4)cccc2n1 (stereo not shown) [Compound 812, 2-{5-[(adamantan-1-ylmethyl)carbamoyl]imidazo[1,2-a]pyridin-2-yl}-4-(dimethylamino)-4-oxobutanoic acid]"
7,< 2000 nM,"CC(C)CC(CNC(=O)c1cccc2nc(CN3CC[C@@H](NC(=O)OC(C)(C)C)C3)cn12)c1ccc(C(F)(F)F)cc1 (stereo partly shown) [Compound 764, tert-butyl (1-{[5-({4-methyl-2-[4-(trifluoromethyl)phenyl]pentyl}carbamoyl)imidazo [1,2-a]pyridin-2-yl]methyl}pyrrolidin-3-yl)carbamate]"
8,< 2000 nM,"Cc1ccc(C(CNC(=O)c2cccc3nc(CN4CC[C@@H](N)C4)cn23)CC(C)C)cc1 (stereo partly shown) [Compound 760, 2-[(3-aminopyrrolidin-1-yl)methyl]-N-[4-methyl-2-(4-methylphenyl)pentyl] imidazo[1,2-a] pyridine-5-carboxamide]"
9,< 2000 nM,"CN(C)[C@@H]1CCN(C(=O)CCc2cn3c(C(=O)NCC45CC6CC(CC(C6)C4)C5)cccc3n2)C1 [Compound 753, N-(adamantan-1-ylmethyl)-2-{3-[(3R)-3-(dimethylamino)pyrrolidin-1-yl]-3-oxopropyl}imidazo [1,2-a)pyridine-5-carboxamide]"
10,< 2000 nM,"CC(C)CC(CNC(=O)c1cccc2nc(CC(=O)N3CCSCC3)cn12)c1ccccc1 (stereo not shown) [Compound 797, N-(4-methyl-2-phenylpentyl)-2-(2-oxo-2-thiomorpholin-4-ylethyl)imidazo [1,2-a]pyridine-5-carboxamide]"

# Same assay, conditions: 50% decrease in the fluorescence response of cells exposed to 80 μM of 2′(3′)-O-(4-benzoyl-benzoyl)adenosine 5′-triphosphate; determined as in Example 4A; read-out: IC50
row,IC50,Structure (SMILES)
1,< 2000 nM,"N[C@@H]1CCN(Cc2cn3c(C(=O)NCC4(c5ccc(Cl)cc5)CCOCC4)cccc3n2)C1 [Compound 910, 2-{[(3R)-3-aminopyrrolidin-1-yl]methyl}-N-{[4-(4-chlorophenyl)tetrahydro-2H-pyran-4-yl]methyl} imidazo[1,2-a] pyridine-5-carboxamide]"
2,< 2000 nM,"Cc1ccc(C(CNC(=O)c2cccc3nc(CC(Cc4ccccc4)C(=O)O)cn23)CC(C)C)cc1 (stereo not shown) [Compound 1005, 2-benzyl-3-(5-{[4-methyl-2-(4-methylphenyl)pentyl]carbamoyl}imidazo[1,2-a]pyridin-2-yl)propanoic acid]"
3,< 2000 nM,"CC1=NCCN1Cc1cn2c(C(=O)NCC(CC(C)C)c3ccc(Cl)cc3)cccc2n1 (stereo not shown) [Compound 923, N-[2-(4-chlorophenyl)-4-methylpentyl]-2-[(2-methyl-4,5-dihydro-1H-imidazol-1-yl)methyl]imidazo[1,2-a]pyridine-5-carboxamide]"
4,< 2000 nM,"CCC(C)NC(=O)Cc1cn2c(C(=O)NCC3(c4cccnc4)CCCCC3)cccc2n1 (stereo not shown) [Compound 869, 2-[2-(sec-butylamino)-2-oxoethyl]-N-[(1-pyridin-3-ylcyclohexyl)methyl] imidazo[1,2-a] pyridine-5-carboxamide]"

# Same assay, conditions: P2X7 calcium mobilization, Example 4A; 50% decrease in the fluorescence response of cells exposed to 80 μM of (2′(3′)-O-(4-benzoyl-benzoyl)adenosine 5′-triphosephate); read-out: IC50
row,IC50,Structure (SMILES)
1,< 2000 nM,"CCN(Cc1cn2c(C(=O)NCC34CC5CC(CC(C5)C3)C4)cccc2n1)C(=O)OC(C)OC(C)=O (stereo not shown) [Compound 1059, 1-{[({5-[(adamantan-1-ylmethyl)carbamoyl]imidazo [1,2-a]pyridin-2-yl}methyl)(ethyl)carbamoyl]oxy} ethyl acetate]"
2,< 2000 nM,"CC(C)CC(CNC(=O)c1cccc2nccn12)c1ccc(C(F)(F)F)nc1 (stereo not shown) [Compound 1051, N-{4-methyl-2-[6-(trifluoromethyl)pyridin-3-yl]pentyl} imidazo[1,2-a]pyridine-5-carboxamide]"
3,< 2000 nM,"CC(C)CC(CNC(=O)c1cccc2ncc(Cl)n12)c1ccc(C(F)(F)F)nc1 (stereo not shown) [Compound 1052, 3-chloro-N-{4-methyl-2-[6-(trifluoromethyl)pyridin-3-yl]pentyl} imidazo[1,2-a]pyridine-5-carboxamide]"

# Same assay, conditions: SH-SY5Y cells; 50% decrease in fluorescence response to 80 μM BzATP; read-out: IC50
row,IC50,Structure (SMILES)
1,< 2000 nM,"O=C(Cc1cn2c(C(=O)NCC34CC5CC(CC(C5)C3)C4)cccc2n1)NCC(F)(F)F [Compound 158, N-(adamantan-1-ylmethyl)-2-{2-oxo-2-[(2,2,2-trifluoroethyl)amino]eth-yl}imidazo[1,2-a]pyridine-5-carboxamide]"

# Same assay, conditions: fluorescence response of cells exposed to 80 μM 2′(3′)-O-(4-benzoyl-benzoyl)adenosine 5′-triphosphate; Example 4A; read-out: IC50
row,IC50,Structure (SMILES)
1,< 2000 nM,"CC1(C)[C@H]2CC[C@@H](CNC(=O)c3cccc4nc(C(=O)N5C[C@@H]6CC5CN6)cn34)[C@@H]1C2 (stereo in doubt) [Compound 303, 2-[(1S,4S)-2,5-diazabicyclo[2.2.1]hept-2-ylcarbonyl]-N-{[(1S,2R,5S)-6,6-dimethylbicyclo[3.1.1]hept-2-yl]methyl}imidazo[1,2-a]pyridine-5-carboxamide]"
2,< 2000 nM,"CCOC(=O)CN(CC)C(=O)c1cn2c(NC(=O)CC34CC5CC(CC(C5)C3)C4)cccc2n1 [Compound 375, ethyl N-({5-[(adamantan-1-ylacetyl)amino]imidazo [1,2-a]pyridin-2-yl}carbonyl)-N-ethylglycinate]"
